Results on ten compounds are retold here after US9908893B2 (Latvian Institute of Organic Synthesis, priority 2013, dated 2018).

Structures are written as SMILES. Where only a bound is given, the exact number is not on record here.

In data set [1] the test system is A7R5 (rat aorta smooth muscle) cells. The experiment in a line: Intracellular Ca2+ measurements, Fluo-4 NW Calcium Assay Kit, KCl-induced [Ca2+]i increase. Type of data set: cell-based. The note with it: for IC50: Rattus norvegicus, A7R5, read-out: Ca^2+ A7R5, IC50; for Ca^2+ antagonist effect compared with Verapamil: relative to Verapamil; for Ca^2+ antagonist effect compared with Verapamil / Ca^2+ A7R5, IC50: A7R5 cells; for Ca^2+ A7R5, IC50: KCl (50 mM) induced [Ca2+]i increase, compounds 0.8 to 100 μM. On the procedure:
Changes in intracellular [Ca^2+] concentration were studied using A7R5 (rat aorta smooth muscle) cells and Fluo-4 NW Calcium Assay Kit (“Invitrogen”, Sweden) according to manufacturer's instructions.
Changes in intracellular [Ca^2+]i concentration were studied using Fluo-4 NW Calcium Assay Kit (“Invitrogen”, Sweden) accordingly to manufacturer's instructions. The A7R5 (rat aorta smooth muscle) cells were grown at 37° C. in a humidified atmosphere with 5% CO2/95% air in DMEM medium containing 2 mM glutamine and supplemented with 10% FBS. The cells were seeded into 96 well plate at 10,000 cells/well and incubated for 72 h. The cells were loaded with […] for 45 min. The Fura-4NW loaded cells were pre-incubated in the dark for 15 minutes with tested compounds at concentrations from 0.8 to 100 μM. Then A7R5 cells were pre-treated with 1.5 mM CaCl2 for 5 minutes and KCl (50 mM) was added to A7R5 cells to induce [Ca^2+]i increase. Amlodipine, the well-known calcium channel inhibitor was used as the positive control.

For data set [2], the system named is NIH 3T3 (normal mouse fibroblasts). Briefly: Basal toxicity test, neutral red, alternative LD50 calculated from IC50. The note with it: alternative LD50 calculated by formula from IC50 in NIH 3T3 cells, 24 h. How it is done:
(§1) A low therapeutic index of chemotherapy agents is due to affecting not only cancer formation but also normal cells.
(§2) 9,000 NIH 3T3 cells/well were placed into 96-well plates for 24 h and then exposed to the test compound over a range of eight concentration (1-1000 μg/ml) for 24 h. Upon that, the cells were incubated with the neutral red dye for 4 h and then OD was determined at 540 nm. […] The IC50 values were calculated using the program Graph Pad Prism® 4.0

Assay in data set [3]: as above
The note with it: mouse, LD50, alternative LD50 calculated by formula from IC50 in NIH 3T3 cells. On the procedure:
as §1, §2

Another data set concerns the target MRP1 (Homo sapiens, UniProt P33527). The experiment in a line: cell-based. The note with it: for MDR, EC50, MRP1: calcein AM assay, DOX resistant H69AR cells. How it is done:
(§3) Thieno[2,3-b]pyridines of the formula (I) were tested to reveal MDR-blocking activity.
About 60,000 cells/well of the human lung carcinoma cell line H69 and H69AR were seeded into the 96-well plates and incubated for 24 h. The compounds were incubated with the cells for 15 min. […] The EC50 values was calculated using the program Graph Pad Prism® 4.0

The target of the next data set is P-glycoprotein (P-gp) (Homo sapiens, UniProt P08183). The experiment in a line: Measurement of P-glycoprotein activity: rhodamine 123 accumulation in MES-SA and MES-SA/Dx5 cells. The note with it: for MDR, EC50, P-gp: rhodamine 123 accumulation, doxorubicin resistant MES-SA/Dx5 cells. How it is done:
as §3
About 50,000 cells/well of the human uterine sarcoma cell line MESSA and MES-SA/Dx5 were seeded into the 96-well plates and incubated for 24 h. The MDR modulators were incubated with the cells for 15 min. […] The EC50 values were calculated using the program Graph Pad Prism® 4.0.

A further data set concerns the target T1, BCRP1 (Homo sapiens, UniProt Q9UNQ0).
T1 sequence (Q9UNQ0 1-655): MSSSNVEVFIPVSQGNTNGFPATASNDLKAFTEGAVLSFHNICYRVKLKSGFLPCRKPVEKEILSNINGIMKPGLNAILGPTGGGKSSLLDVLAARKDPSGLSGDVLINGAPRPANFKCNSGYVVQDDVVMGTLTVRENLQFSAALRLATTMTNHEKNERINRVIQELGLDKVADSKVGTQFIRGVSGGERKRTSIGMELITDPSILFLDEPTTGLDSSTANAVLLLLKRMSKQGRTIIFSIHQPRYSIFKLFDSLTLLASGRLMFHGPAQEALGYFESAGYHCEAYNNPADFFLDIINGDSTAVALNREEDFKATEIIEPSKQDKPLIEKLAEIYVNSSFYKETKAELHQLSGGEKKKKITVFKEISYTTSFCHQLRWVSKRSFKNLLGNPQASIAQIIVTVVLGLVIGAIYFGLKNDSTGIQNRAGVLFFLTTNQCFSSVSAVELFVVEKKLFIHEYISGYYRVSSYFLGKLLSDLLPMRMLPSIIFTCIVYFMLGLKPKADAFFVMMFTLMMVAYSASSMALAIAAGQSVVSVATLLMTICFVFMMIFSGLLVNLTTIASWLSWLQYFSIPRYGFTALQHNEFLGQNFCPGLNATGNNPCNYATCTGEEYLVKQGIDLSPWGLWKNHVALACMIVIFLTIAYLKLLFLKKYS
The experiment in a line: cell-based. The note with it: for MDR, EC50, BCRP1: Hoechst 33342, mitoxantrone resistant MES-SA/MX2 cells. On the procedure: as §3
About 50,000 cells/well of the MESSA and MES-SA/MX2 were seeded into the 96-well plates and incubated for 24 h. The MDR modulators were incubated with the cells for 15 min. […] The EC50 values were calculated using the program Graph Pad Prism® 4.0

MRP1, sequence (P33527 whole entry): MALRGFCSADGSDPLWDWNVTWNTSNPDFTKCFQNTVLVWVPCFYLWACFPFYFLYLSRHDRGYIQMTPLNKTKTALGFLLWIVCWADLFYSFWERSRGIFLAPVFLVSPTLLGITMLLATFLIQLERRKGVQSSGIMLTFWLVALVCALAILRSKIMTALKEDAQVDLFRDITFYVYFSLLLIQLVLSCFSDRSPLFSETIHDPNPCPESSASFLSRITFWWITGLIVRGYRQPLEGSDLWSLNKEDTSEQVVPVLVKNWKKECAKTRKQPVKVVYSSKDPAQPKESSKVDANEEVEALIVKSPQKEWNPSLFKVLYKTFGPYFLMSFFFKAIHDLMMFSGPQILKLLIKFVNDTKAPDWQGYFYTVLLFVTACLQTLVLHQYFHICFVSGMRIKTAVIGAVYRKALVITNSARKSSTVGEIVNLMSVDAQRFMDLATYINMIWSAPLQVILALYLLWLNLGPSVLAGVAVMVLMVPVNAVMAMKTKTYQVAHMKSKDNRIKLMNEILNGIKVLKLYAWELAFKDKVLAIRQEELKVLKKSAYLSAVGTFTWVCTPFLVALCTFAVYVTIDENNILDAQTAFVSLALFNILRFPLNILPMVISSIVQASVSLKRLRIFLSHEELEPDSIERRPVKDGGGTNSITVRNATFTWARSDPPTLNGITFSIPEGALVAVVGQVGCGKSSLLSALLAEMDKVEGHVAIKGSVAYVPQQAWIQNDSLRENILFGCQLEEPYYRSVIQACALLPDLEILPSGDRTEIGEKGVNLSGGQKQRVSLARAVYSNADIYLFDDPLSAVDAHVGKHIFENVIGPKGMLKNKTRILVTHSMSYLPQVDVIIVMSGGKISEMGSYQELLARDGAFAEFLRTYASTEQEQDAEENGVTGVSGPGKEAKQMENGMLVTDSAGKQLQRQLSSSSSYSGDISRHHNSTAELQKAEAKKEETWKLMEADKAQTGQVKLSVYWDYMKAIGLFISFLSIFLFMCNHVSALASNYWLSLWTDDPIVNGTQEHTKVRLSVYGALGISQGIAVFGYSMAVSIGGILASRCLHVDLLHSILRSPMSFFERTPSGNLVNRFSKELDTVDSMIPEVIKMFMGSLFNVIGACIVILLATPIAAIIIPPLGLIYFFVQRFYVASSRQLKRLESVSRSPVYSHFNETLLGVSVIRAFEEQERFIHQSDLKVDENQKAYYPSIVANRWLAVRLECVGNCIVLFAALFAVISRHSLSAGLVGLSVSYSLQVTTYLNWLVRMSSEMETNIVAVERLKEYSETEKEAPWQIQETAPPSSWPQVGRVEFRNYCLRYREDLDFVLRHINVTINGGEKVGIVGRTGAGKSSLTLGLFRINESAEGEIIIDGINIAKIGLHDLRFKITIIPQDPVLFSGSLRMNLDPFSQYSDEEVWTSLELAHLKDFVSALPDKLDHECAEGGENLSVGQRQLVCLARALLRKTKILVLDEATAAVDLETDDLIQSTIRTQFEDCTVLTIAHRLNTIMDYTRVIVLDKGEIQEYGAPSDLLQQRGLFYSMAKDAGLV
P-glycoprotein (P-gp), sequence (P08183 whole entry): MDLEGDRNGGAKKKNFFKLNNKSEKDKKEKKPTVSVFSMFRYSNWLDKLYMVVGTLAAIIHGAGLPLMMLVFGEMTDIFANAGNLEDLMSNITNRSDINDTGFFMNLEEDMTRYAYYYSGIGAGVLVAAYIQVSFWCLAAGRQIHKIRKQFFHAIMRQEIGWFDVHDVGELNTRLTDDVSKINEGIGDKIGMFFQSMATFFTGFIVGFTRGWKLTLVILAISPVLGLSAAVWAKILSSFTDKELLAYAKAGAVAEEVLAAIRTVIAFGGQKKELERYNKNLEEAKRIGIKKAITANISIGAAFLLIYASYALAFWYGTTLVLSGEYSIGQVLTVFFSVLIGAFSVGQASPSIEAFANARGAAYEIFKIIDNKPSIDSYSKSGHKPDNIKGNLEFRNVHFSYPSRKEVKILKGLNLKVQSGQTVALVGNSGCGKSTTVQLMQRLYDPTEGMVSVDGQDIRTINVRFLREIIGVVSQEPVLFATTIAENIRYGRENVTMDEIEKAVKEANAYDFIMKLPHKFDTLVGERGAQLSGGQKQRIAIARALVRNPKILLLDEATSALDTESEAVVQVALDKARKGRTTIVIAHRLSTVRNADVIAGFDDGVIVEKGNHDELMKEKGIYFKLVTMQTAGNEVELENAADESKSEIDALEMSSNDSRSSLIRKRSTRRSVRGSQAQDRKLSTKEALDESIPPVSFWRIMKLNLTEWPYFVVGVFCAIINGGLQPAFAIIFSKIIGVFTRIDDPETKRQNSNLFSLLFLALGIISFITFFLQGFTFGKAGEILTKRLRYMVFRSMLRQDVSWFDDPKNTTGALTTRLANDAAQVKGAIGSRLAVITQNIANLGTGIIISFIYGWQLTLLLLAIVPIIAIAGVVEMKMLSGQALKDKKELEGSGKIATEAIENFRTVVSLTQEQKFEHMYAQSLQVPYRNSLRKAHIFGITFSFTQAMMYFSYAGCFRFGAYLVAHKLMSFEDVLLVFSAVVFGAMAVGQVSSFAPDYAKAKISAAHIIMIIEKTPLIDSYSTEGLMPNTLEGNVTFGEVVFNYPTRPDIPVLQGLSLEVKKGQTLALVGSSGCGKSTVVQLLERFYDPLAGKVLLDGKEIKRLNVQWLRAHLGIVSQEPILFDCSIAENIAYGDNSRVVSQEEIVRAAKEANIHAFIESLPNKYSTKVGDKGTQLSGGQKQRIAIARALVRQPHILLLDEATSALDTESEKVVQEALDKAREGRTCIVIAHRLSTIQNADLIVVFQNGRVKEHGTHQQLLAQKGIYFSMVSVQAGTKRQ

For `CCOC(=O)c1c(C)nc2sc(C(=O)c3ccc(OC)cc3)c(N)c2c1-c1cc(OC)c(OC)c(OC)c1` [Compound 24, 3-Amino-2-(4-methoxybenzoyl)-6-methyl-4-(3,4,5-trimethoxyphenyl)thieno[2,3-b]-pyridine-5-carboxylic acid ethyl ester], in data set [1], the IC50 turned out to be 19 ± 3 µM and the “Ca^2+ antagonist effect compared with Verapamil” value is reported as “more than ten times lower”. In data set [2], the LD50 was >2000 mg/kg. Also, in data set [3], the LD50 at 24 h is > 2000 mg/kg.
As to `CCOC(=O)c1c(C)nc2sc(C(=O)c3ccc(OC)cc3)c(N)c2c1-c1ccco1` [Compound 43, 3-Amino-4-(furan-2-yl)-2-(4-methoxybenzoyl)-6-methylthieno[2,3-b]pyridine-5-carboxylic acid ethyl ester], the “MDR, EC50, MRP1” value at MRP1 is listed as “No effect”. Moreover, the “MDR, EC50, P-gp” value on P-glycoprotein (P-gp) was “No effect”. Also, the “MDR, EC50, BCRP1” value on BCRP1 is given as “No effect”.
Take `CCOC(=O)c1c(C)nc2sc(C(=O)c3ccc(OC)cc3OC)c(N)c2c1-c1cc(OC)c(OC)c(OC)c1` [Compound 25, 3-Amino-2-(2,4-dimethoxybenzoyl)-6-methyl-4-(3,4,5-trimethoxyphenyl)-thieno[2,3-b]pyridine-5-carboxylic acid ethyl ester]: in data set [1], the IC50 worked out at 46 ± 1.4 µM and the “Ca^2+ antagonist effect compared with Verapamil” value is reported as “more than ten times lower”. Moreover, the LD50 in data set [2] is >2000 mg/kg. In addition, the LD50 at 24 h in data set [3] is > 2000 mg/kg.
`COC(=O)c1c(C)nc2sc(C(=O)c3ccc4ccccc4c3)c(N)c2c1-c1cc(OC)c(OC)c(OC)c1` [Compound 41, 3-Amino-6-methyl-2-(naphthalene-2-carbonyl)-4-(3,4,5-trimethoxyphenyl)-thieno[2,3-b]pyridine-5-carboxylic acid methyl ester]: the IC50 in data set [1] worked out at 18 ± 1.4 µM. Moreover, the “MDR, EC50, MRP1” value on MRP1 is given as “No effect”. Besides, the LD50 at 24 h in data set [3] is > 2000 mg/kg. Moreover, the EC50 on P-glycoprotein (P-gp) was determined as 10.5 ± 0.7 µM; on BCRP1, 0.8 ± 0.2 µM.
Turning to `CCOC(=O)c1c(C)nc2sc(C(=O)c3ccc(OC)cc3)c(N)c2c1-c1ccc2c(c1)OCO2` [Compound 42, 3-Amino-4-(benzo[1,3]dioxol-5-yl)-2-(4-methoxybenzoyl)-6-methylthieno[2,3-b]-pyridine-5-carboxylic acid ethyl ester], in data set [1], the IC50 was determined as 18 ± 1 µM. The EC50 on MRP1 amounted to 24.8 ± 1.2 µM; at P-glycoprotein (P-gp) it was 20.4 ± 0.1 µM; on BCRP1, 2.3 ± 0.4 µM. In addition, the LD50 at 24 h in data set [3] is 2010 mg/kg.
Regarding `CCOC(=O)c1c(C)nc2sc(C(=O)c3ccc(OC)cc3)c(N)c2c1-c1ccc(N(C)C)cc1` [Compound 29, 3-Amino-4-(4-dimethylaminophenyl)-2-(4-methoxybenzoyl)-6-methylthieno[2,3-b]-pyridine-5-carboxylic acid ethylester], the IC50 in data set [1] was determined as 35 ± 3 µM. In data set [3], the LD50 at 24 h was > 2000 mg/kg. Besides, at P-glycoprotein (P-gp) (summary of the P-gp, MRP1 and BCRP1 efflux assays), the “inhibition of MDR transport proteins (P-gp, MRP1, BCRP1), summary in words” value is “selectively inhibit P-gp and BCRP1”.
`COc1cc(-c2cc(-c3cc(OC)c(OC)c(OC)c3)c3c(N)c(C(=O)c4ccc(Cl)cc4)sc3n2)cc(OC)c1OC` [Compound 47, 3-Amino-4,6-bis-(3,4,5-trimethoxyphenyl)-2-(4-chlorobenzoyl)thieno[2,3-b]-pyridine]: on MRP1, the “MDR, EC50, MRP1” value is “No effect”. Also, the median lethal dose (LD50) at 24 h in data set [3] was > 2000 mg/kg. Besides, the EC50 came to 31.4 ± 0.8 µM at P-glycoprotein (P-gp) and 14.5 ± 3.5 µM at BCRP1.
Take `COc1ccc(C(=O)c2sc3nc(-c4cc(OC)c(OC)c(OC)c4)cc(-c4cc(OC)c(OC)c(OC)c4)c3c2N)cc1` [Compound 48, 3-Amino-4,6-bis-(3,4,5-trimethoxyphenyl)-2-(4-methoxybenzoyl)thieno[2,3-b]-pyridine]: the “Ca^2+ A7R5, IC50” value in data set [1] is on record as “No effect”. Further, the “MDR, EC50, MRP1” value on MRP1 is “No effect”. Also, the LD50 at 24 h in data set [3] is 3080 mg/kg. At P-glycoprotein (P-gp), this compound displayed a concentration for a half-maximal effect (EC50) of 32.5 ± 2.1 µM. Besides, on BCRP1, the “MDR, EC50, BCRP1” value is given as “No effect”.
On to `CN(C)C(=O)CCSC(SCCC(=O)O)c1cccc(/C=C/c2ccc3ccc(Cl)cc3n2)c1` (stereo not shown) [MK-571, reference compound], for which the “Ca^2+ A7R5, IC50” value in data set [1] was “No effect”. Also, the LD50 at 24 h in data set [3] was 752 mg/kg. Moreover, the “MDR, EC50, P-gp” value at P-glycoprotein (P-gp) is recorded as “No effect”.
Regarding `COC(=O)c1c(C)nc2sc(C(=O)c3ccc(OC)cc3)c(N)c2c1-c1ccc(OC)c(OC)c1` [Compound 6, 3-Amino-4-(3,4-dimethoxyphenyl)-2-(4-methoxybenzoyl)-6-methyl-thieno[2,3-b]-pyridine-5-carboxylic acid methyl ester], in data set [1], the IC50 worked out at 6 ± 0.8 µM and the “Ca^2+ antagonist effect compared with Verapamil” value was “more than ten times lower”. In addition, the 50% lethal dose (LD50) in data set [2] is listed as 2808 mg/kg. The LD50 at 24 h in data set [3] was > 2000 mg/kg.
